According to US5583138A, “17β-substituted 4-azaandrostane derivatives, pharmaceutical compositions containing them and process for preparing same” (Richter Gedeon Vegyeszeti Gyar Rt., priority 1992, dated 1996):

The compounds below were run against T1, steroid 5α-reductase enzyme (Homo sapiens, UniProt P31213) (assay: 5α-reductase inhibition: conversion of [3H]-testosterone to DHT and androstanediol by enzyme from human hyperplastic prostate). Settings: 0.5 μM [3H]-testosterone, 500 μM NADPH, pH=5.1, 37° C., 10 minutes, read-out: IC50 (concentration decreasing the percentage conversion of testosterone by 50% in comparison to the control value).
T1 construct: Frozen human hyperplastic prostate was used for preparation of the enzyme; from tissue; host or cells: human hyperplastic prostate (frozen), sediment of 100000×g ultracentrifugation
T1 sequence (P31213 1-254): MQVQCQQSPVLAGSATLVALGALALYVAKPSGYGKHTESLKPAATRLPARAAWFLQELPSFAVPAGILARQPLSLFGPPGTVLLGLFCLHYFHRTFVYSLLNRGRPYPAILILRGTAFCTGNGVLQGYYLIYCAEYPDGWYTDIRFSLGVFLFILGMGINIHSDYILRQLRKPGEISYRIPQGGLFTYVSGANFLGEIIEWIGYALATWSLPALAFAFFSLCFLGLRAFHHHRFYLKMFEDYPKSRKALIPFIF
Assay type: biochemical

IC50 | Structure (SMILES)
8.59 nM | CC1CCCC(C)N1C(=O)[C@H]1CC[C@H]2[C@@H]3CC[C@H]4NC(=O)C=C[C@]4(C)[C@H]3CC[C@]12C (stereo partly drawn) [17β-(2,6-dimethylpiperidinocarbonyl)-3-oxo-4-aza-5α-androst-1-ene]
8.64 nM | C[C@]12C=CC(=O)N[C@@H]1CC[C@@H]1[C@@H]2CC[C@]2(C)[C@@H](C(=O)N3CCCCCCC3)CC[C@@H]12 [17β-(heptamethyleneiminocarbonyl)-3-oxo-4-aza-5α-androst-1-ene]
13.1 nM | C[C@]12C=CC(=O)N[C@@H]1CC[C@@H]1[C@@H]2CC[C@]2(C)[C@@H](C(=O)N3CCCCCC3)CC[C@@H]12 [17β-(hexamethyleneiminocarbonyl)-3-oxo-4-aza-5α-androst-1-ene]
18.4 nM | CC(C)(C)NC(=O)[C@H]1CC[C@H]2[C@@H]3CC[C@H]4NC(=O)C=C[C@]4(C)[C@H]3CC[C@]12C [MK-906, 17β-[N-(1,1-Dimethylethyl)carbamoyl]-3-oxo-4-aza-5α-androst-1-ene, reference compound]
